Assay results published in paper PMC12441774, “Proteolytic stabilization of a spider venom peptide results in an orally active bioinsecticide” (Pest Management Science, 2025).
Bridges are numbered along the chain shown (N, C = ends). Where no end group is shown, it is not given here.

Assays:
[1] = Gut enzyme digestion, M. sexta gut extract; format: in vitro ADME, Manduca sexta; details: for half-life: M. sexta fifth instar gut extract diluted 10× in 30 mM Tris–HCl pH 8.8, 0.5–1 mg mL^−1 peptide, HPLC, single exponential decay fit, read-out: Degradation half life, Gut extract; for Degradation half time ratio to Ta1b, Gut extract: ratio of half lives in M. sexta gut extract; for Fold stability improvement over Ta1b: gut extract stability testing, limit of testing 50‐fold
Description: (§1) Larvae of H. zea, Spodoptera frugiperda Smith and Abbot, 1797, and Trichoplusia ni Hubner, 1802 were purchased from Benzon Research and reared to fifth instar on general purpose lepidopteran diet. Manduca sexta L. were purchased from Carolina Biological Supply (Burlington, NC) and reared to fifth instar on the supplied diet. Larvae were anesthetized on ice for 30 min, pinned on a dissection plate, and opened laterally with microdissection scissors. The foregut, midgut and hindgut were excised and washed using sterile water to remove any excess hemolymph and then transferred into a chilled 2‐mL microcentrifuge tube. The extracts were spun in a microcentrifuge at 10000 g to pellet the solids. The liquid fractions were carefully removed, sterile filtered, and stored at −80°C for future use.
(§2) For gut enzyme digestion studies, gut extract was diluted 10× with the dilution buffer (30 mM Tris–HCl, pH 8.8) and 0.5–1 mg mL^−1 of Ta1b. Samples were taken from the digestion mixture at defined timepoints and mixed with a 1:6 ratio of stop buffer (Tris–HCl pH 1–2) to halt further digest of the peptide. Samples were sterile filtered and analyzed by HPLC to determine peptide integrity and concentration.

[2] = Protease stability, commercial trypsin digestion; format: in vitro ADME, bovine; details: bovine trypsin 1 mg mL^−1 in 50 mM Tris–HCl pH 8.8, 100 mM NaCl; 5 μL added to 200 μL of 10.7 mg mL^−1 peptide; room temperature; HPLC; read-out: Degradation half life, Trypsin
Description: (§3) For commercial enzyme digestion studies, bovine trypsin (Sigma‐Aldrich, St. Louis, MO) was prepared at a concentration of 1 mg mL^−1 in 50 mM Tris–HCl pH 8.8, 100 mM NaCl. Bovine chymotrypsin (Sigma‐Aldrich) was prepared at a concentration of 1 mg ml^−1 in 50 mM MES pH 6.0, 100 mM NaCl. For each digestion condition, 5 μL of trypsin or chymotrypsin solution were added to 200 μL of 10.7 mg mL^−1 peptide and incubated at room temperature. Samples were taken at defined timepoints, sterile filtered, and analyzed immediately by HPLC.

bovine trypsin = biological target: T1, bovine trypsin (Bos taurus, UniProt P00760); test: Protease stability, commercial trypsin digestion; format: in vitro ADME; details: for Degradation half time ratio to Ta1b, Trypsin: ratio of half lives with bovine trypsin
T1 construct: purchased Sigma-Aldrich
T1 sequence (P00760 24-246): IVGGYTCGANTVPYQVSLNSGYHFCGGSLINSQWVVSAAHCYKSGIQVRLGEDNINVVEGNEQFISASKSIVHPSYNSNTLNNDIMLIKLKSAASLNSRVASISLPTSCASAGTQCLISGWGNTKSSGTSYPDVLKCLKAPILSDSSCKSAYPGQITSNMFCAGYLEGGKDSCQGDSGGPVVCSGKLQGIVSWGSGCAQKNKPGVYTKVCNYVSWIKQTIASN
Description: as §3

Musca domestica = test: Insecticidal activity by injection into adult house flies; format: in vivo; details: adult house flies 12–18 mg, 0.5 μL into dorsal thorax, mortality 24 h post‐injection, 10 flies per treatment, at least triplicate, four‐parameter sigmoidal fit
Description: Adult house flies (Musca domestica L.) were immobilized with CO2 gas and those with an average weight of 12–18 mg were selected for injection. Purified solutions of Ta1b and variants were diluted in water and injected into the dorsal thorax with a 1‐cc syringe and 30‐gauge needle using a hand microapplicator (Burkard, Rickmansworth, England). Each adult was injected with 0.5 μL of solution with 10 flies per treatment in at least triplicate. Water was used as a negative control. Flies were placed into a container with moist filter paper and scored for mortality 24 h post‐injection. Ten non‐injected flies were placed in a container to assess CO2 mortality. Response curves were fitted with a four‐parameter sigmoidal function (GraphPad Prism, Boston, MA) to determine LD50 values.
(§4) To compare the potency of Ta1b, we also injected the following active ingredients into M. domestica and H. zea: GS‐ω/κ (Spear, Vestaron), spinosad (Monterey Garden Insect Spray, Monterey), thiamethoxam (Optigard® Flex, Syngenta), and chlorantraniliprole (ALTACOR®, FMC).

Helicoverpa zea = test: Insecticidal activity by injection into fourth instar larvae; format: in vivo; details: fourth instar larvae, 1 μL into penultimate proleg, mortality 24 h after injection, eight larvae per treatment, at least triplicate
Description: Helicoverpa zea (Boddie, 1850) larvae were reared from eggs (Benzon, Carlisle, PA) to fourth instar on general purpose lepidopteran diet (F9772, Frontier Agricultural Sciences, Newark, DE). Pre‐weighed larvae immobilized on ice were injected into their penultimate proleg as described for M. domestica with 1 μL solution and eight larvae per treatment in at least triplicate. After injection, larvae were placed in a well of a 32‐well tray filled with 5 mL lepidopteran diet. The trays were then placed in an incubator at 28° C with 16:8 h light: dark cycle and evaluated 24 h after injection for mortality.
as §4

H. zea neonates = test: Insecticidal activity by foliar spray (lettuce leaf disk feeding); format: in vivo, Helicoverpa zea
Description: Organic romaine lettuce was cut into 30‐mm diameter disks and sterilized with a 140‐ppm bleach solution followed by a triple rinse in water. The lettuce disks were then sprayed on either side using a Potter Tower Sprayer (Burkard, Rickmansworth, England) with insecticidal solutions, allowing them to dry between sprays. Once fully sprayed and dried, disks were placed into an arena, which was a 32‐well rearing tray containing 5 mL of 1% w/v agar. One leaf disk was placed in each well and a single neonate H. zea was applied to each of the 12 leaf discs per treatment with four experimental replicates per treatment. The trays were then placed in a 28° C incubator with a 16:8 h light: dark cycle. Mortality was evaluated 4 days after application.

Myzus persicae = test: Greenhouse trial on green peach aphids on cucumbers; format: in vivo; details: Admire Pro 0.088 L product ha^−1; four applications
Description: Contact activity of Ta1b‐QA on green peach aphids (Myzus persicae (Sulzer, 1776)) on cucumbers in the greenhouse was performed in cooperation with A.C.D.S Research in North Rose, NY. The study was a randomized complete block design (RCBD), with treatments replicated six times, plots consisting of three pots each containing two to three plants. […] Treatments were applied four times, at 6–8‐day intervals, with a backpack CO2 sprayer in a spray volume of 374 L ha^−1. The number of aphids per plant was counted at regular intervals (0, 4, 11, 17, 23 and 29 d after first application). Cumulative insect‐days (defined as the area under the insect population curve as a measure of pest pressure) were calculated based on those six rating dates, then converted to % control relative to the untreated check using Abbott's formula. One replicate was removed due to a lack of pest pressure in the untreated check. Data were analyzed by one‐way ANOVA followed by a Tukey HSD LSM test with significance set at P < 0.05 (GraphPad Prism).

Pieris brassicae = test: Field trial on cabbage caterpillar on cabbage; format: in vivo; details: spinosad (Laser, 96 g product ha^−1) or Btk alone; two applications 7 days apart; four replicate plots
Description: A dose–response of U1‐AGTX‐Ta1b‐QA (Ta1b‐QA) combined with Bacillus thuringiensis subsp. kurstaki (Btk; DiPel DF®, Valent) was performed by Agricola 2000 in a randomized complete block design (RCBD) on cabbage caterpillar (Pieris brassicae L.) on cabbage in Palagiano, Italy with four replicate plots of 1 × 15 m in open‐field containing 25 plants each. Treatments included an untreated check, three rates (22, 34, 45 g AI ha^−1) of an 8.5% w/w spray‐dried sample of Ta1b‐QA together with Btk (DiPel DF®, Valent, 0.5 kg product ha^−1), and the reference standard spinosad (Laser®, Corteva, 96 g product ha^−1). Treatments were applied two times, 7 days apart, with a backpack CO2 sprayer in a spray volume of 800 L ha^−1. […] Data were analyzed by one‐way ANOVA followed by a Tukey HSD LSM test with significance set at P < 0.05 (GraphPad Prism).

[3] = Gut enzyme digestion, T. ni gut extract; format: in vitro ADME, Trichoplusia ni; details: extract diluted ten-fold, single exponential decay fit, HPLC
Description: as §1, §2

[4] = Gut enzyme digestion, H. zea gut extract; format: in vitro ADME, Helicoverpa zea; details: extract diluted ten-fold, single exponential decay fit, HPLC
Description: as §1, §2

[5] = Gut enzyme digestion, S. frugiperda gut extract; format: in vitro ADME, Spodoptera frugiperda; details: extract diluted ten-fold, single exponential decay fit, HPLC
Description: as §1, §2

[6] = Gut enzyme digestion, stated jointly for three lepidopteran gut extracts; format: in vitro ADME, H. zea, S. frugiperda, T. ni; details: 10‐fold diluted gut extract, single exponential decay, followed up to 21 h
Description: as §1, §2

EPDEICRAAMTNKEFTYKSNVCNNCGDQVAACEAECFRNDVYTACHEAQKG (disulfide 6-36, 22-32, 25-45) [Mutant R9A]
half-life [1]: 4.97 h
Degradation half time ratio to Ta1b, Gut extract [1]: 213
half-life at 10.4 mg mL^-1 [2]: > 100 h
Digestion by bovine trypsin (HPLC) (bovine trypsin; pH 8.8, room temperature, HPLC chromatogram): complete abrogation of Ta1b digestion
Degradation half time ratio to Ta1b, Trypsin (bovine trypsin): >20

GSQYCVPVDQPCSLNTQPCCDDATCTQERNENGHTVYYCRA (disulfide 5-20, 12-25, 19-39) [GS‐ω/κ, reference compound]
Insecticidal LD50, injection, M. domestica (95% CI) (Musca domestica): 0.19 (0.17–0.21) nmol g^−1
Degradation when incubated with gut extract (HPLC) ([1]; M. sexta gut extract, HPLC peak): did not show any degradation
Insecticidal LD50, injection, H. zea (95% CI) (Helicoverpa zea): 5.9 (4.9–6.9) nmol g^−1
Day 4 mortality of H. zea on treated lettuce leaves, peptide alone (H. zea neonates; 100 μg cm^−2, neonates, compared to untreated): significant activity on its own
Day 4 mortality of H. zea on treated lettuce leaves, peptide in combination with Btk (H. zea neonates; 100 μg cm^−2 peptide with sublethal Btk 0.17 μg cm^−2, neonates): activity is increased

EPDEICAARMTNKEFTYKSNVCNNCGDQVAACEAECFRNDVYTACHEAQKG (disulfide 6-36, 22-32, 25-45) [Mutant R7A]
half-life at 10.4 mg mL^-1 [2]: 2.2 h
Degradation half time ratio to Ta1b, Trypsin (bovine trypsin): 0.5

EPDEICRARMTNKEFTYKSNVCNNCGDQVAACEAECFANDVYTACHEAQKG (disulfide 6-36, 22-32, 25-45) [Mutant R38A]
half-life [1]: 0.215 h
Degradation half time ratio to Ta1b, Gut extract [1]: 9.2
half-life at 10.4 mg mL^-1 [2]: 31 h
Degradation half time ratio to Ta1b, Trypsin (bovine trypsin): 6.5

H-ICRAQMTNKEFTYKSNVCNNCGDQVAACEAECFRNDVYAACHEAQKG-OH (disulfide 2-32, 18-28, 21-41)
Reduction in melting temperature vs Ta1b-QA: 14.2 °C

CN1COCN(Cc2cnc(Cl)s2)/C1=N\[N+](=O)[O-] [Thiamethoxam, thiamethoxam]
Insecticidal LD50, injection, M. domestica (95% CI) (Musca domestica): 23.2 (18.1–29.6) nmol g^−1
Insecticidal LD50, injection, H. zea (95% CI) (Helicoverpa zea): 31.9 (20.2–52.1) nmol g^−1

O=[N+]([O-])NC1=NCCN1Cc1ccc(Cl)nc1 [imidacloprid]
Mean % control of cumulative insect‐days relative to the untreated check, reference standard (Myzus persicae): 90.4%

spinosad
Insecticidal LD50, injection, M. domestica (95% CI) (Musca domestica): 1.5 (0.9–2.4) nmol g^−1
Mean % control of larvae relative to the untreated check, comparators (Pieris brassicae): 57.8%
Insecticidal LD50, injection, H. zea (95% CI) (Helicoverpa zea): 0.20 (0.14–0.31) nmol g^−1

EPDEICRSRMTNKEFTYKSNVCNNCGDQVAACEAECFRNDVYTACHEAQKG (disulfide 6-36, 22-32, 25-45) [Mutant A8S]
Fold stability improvement over Ta1b [1]: 12.1

EPDEICRAHMTNKEFTYKSNVCNNCGDQVAACEAECFRNDVYTACHEAQKG (disulfide 6-36, 22-32, 25-45) [Mutant R9H]
Fold stability improvement over Ta1b [1]: 16.2

EPDEICRARMTNAEFTYKSNVCNNCGDQVAACEAECFRNDVYTACHEAQKG (disulfide 6-36, 22-32, 25-45) [Mutant K13A]
half-life at 10.4 mg mL^-1 [2]: 4.9 h
Degradation half time ratio to Ta1b, Trypsin (bovine trypsin): 1.0

EPDEICRNRMTNKEFTYKSNVCNNCGDQVAACEAECFRNDVYTACHEAQKG (disulfide 6-36, 22-32, 25-45) [Mutant A8N]
Fold stability improvement over Ta1b [1]: 1.8

EPDEICRARMTNKEFTYASNVCNNCGDQVAACEAECFRNDVYTACHEAQKG (disulfide 6-36, 22-32, 25-45) [Mutant K18A]
half-life at 10.4 mg mL^-1 [2]: 19.9 h
Degradation half time ratio to Ta1b, Trypsin (bovine trypsin): 4.1

CNC(=O)c1cc(Cl)cc(C)c1NC(=O)c1cc(Br)nn1-c1ncccc1Cl [Chlorantraniliprole, chlorantraniliprole]
Insecticidal LD50, injection, M. domestica (95% CI) (Musca domestica): no activity
Insecticidal LD50, injection, H. zea (95% CI) (Helicoverpa zea): 0.22 (0.15–0.37) nmol g^−1

EPDEICRAQMTNKEFTYKSNVCNNCGDQVAACEAECFRNDVYTACHEAQKG (disulfide 6-36, 22-32, 25-45) [Mutant R9Q]
Degradation half-life in T. ni gut extract [3]: could not be fit to an exponential decay
Degradation half-life in H. zea gut extract [4]: could not be fit to an exponential decay
Fold stability improvement over Ta1b [1]: >50
Degradation half-life in S. frugiperda gut extract [5]: could not be fit to an exponential decay
Degradation half‐lives in gut extracts from H. zea, S. frugiperda, and T. ni [6]: too little degradation to calculate half‐lives even after 21 h

EPDEICRARMPNKEFTYKSNVCNNCGDQVAACEAECFRNDVYTACHEAQKG (disulfide 6-36, 22-32, 25-45) [Mutant T11P]
Fold stability improvement over Ta1b [1]: >50

EPDEICRANMTNKEFTYKSNVCNNCGDQVAACEAECFRNDVYTACHEAQKG (disulfide 6-36, 22-32, 25-45) [Mutant R9N]
Fold stability improvement over Ta1b [1]: >50
